# Where two headings read alike, the source gives them in different places.
# Columns and labels:
# [1] = system: NGF-induced ERK phosphorylation; assay: Inhibition of NGF-induced Erk 1/2 phosphorylation (pERK); assay type: cell-based; conditions: Rattus norvegicus, Table 2
# Method: This assay is useful for establishing that the compounds of the invention are functional NGF antagonists, not receptor agonists (an agonist could conceivably block NGF binding but actually activate the receptor). Erk 1/2 is a kinase activated down stream of TrkA and is a well studied member of the NGF-induced signal transduction cascade.
# PC12 cells expressing TrkA and p75 are acutely exposed to 1 ng/mL NGF (15 min; 37° C.; 5% CO2) that is pre-incubated (30 min; room temperature) with or without the compounds. Cells are lysed in Laemmli sample buffer (for SDS-PAGE) or a lysis buffer containing Triton X-100 (for ELISA). Following SDS-PAGE, proteins are electroblotted onto nitrocellulose and immunoprobed for phosphorylated Erk 1 and 2. Blocking and primary antibody incubations of immunoblots are performed in Tris-buffered saline-Tween (10 mM Tris, pH 8.0, 150 mM NaCl, and 0.2% Tween 20) supplemented with 5% (w/v) bovine serum albumin (BSA); secondary antibody incubations are performed in 5% (w/v) dried skim milk powder. Immunoreactive bands are detected by chemiluminescence.
# A quantitative method to detect phosphorylated Erk 1/2 by immunofluorescence is also used. Neuroscreen-1 cells are grown in a 96 well plate. NGF preincubated with or without the compounds for 30 minutes, is added to the cells for 5 minutes at 37° C. Cells are then fixed and stained with an antibody against phosphor-ERK 1/2. A fluorescently labeled secondary antibody is used to show the presence of phosphorylated ERK 1/2. Quantitative results are generated by photographing the wells with light of the appropriate wavelength, followed by software based image analysis.
# [2] = system: spontaneous pain evoked by intraplantar injection of formalin in the rat; assay: Formalin model of acute tonic pain; assay type: in vivo; conditions: for pain intensity as evaluated by the licking behavior: s.c. 30 min prior to formalin, 2E 0.1-10 mg/kg, 1G 0.4-20 mg/kg, 47G 10-300 μmol/kg, 50G 30 and 100 μmol/kg
# Method: Male Sprague-Dawley rats are housed together in groups of three animals under standard conditions with unrestricted access to food and water. All experiments are conducted according to the ethical guidelines for investigations of experimental pain in conscious animals (Zimmerman, 1983).
# Assessment of formalin-induced flinching behavior in normal, uninjured rats (body weight 200-300 g) is made after formalin (2.5% in saline, 50-100 μl, s.c.) is injected into the plantar surface of the hindpaw using a 27G needle. Rats are pretreated with test compounds either administered intravenously (IV), by subcutaneous injection (SC) or by orally (PO).
# Nociceptive behavior is determined manually every 5 min by measuring the amount of time spent in each of four behavioral categories: 0, treatment of the injected hindpaw is indistinguishable from that of the contralateral paw; 1, the injected paw has little or no weight placed on it; 2, the injected paw is elevated and is not in contact with any surface; 3, the injected paw is licked, bitten, or shaken. A weighted nociceptive score, ranging from 0 to 3 is calculated by multiplying the time spent in each category by the category weight, summing these products, and dividing by the total time for each 5 min block of time. (Coderre et al., Pain 1993; 54: 43). On the basis of the resulting response patterns, […] of nociceptive behavior are identified and scored: first phase (P1; 0-5 min), interphase (Int; 6-15 min), second phase (P2; […]), phase 2A (P2A; 16-40 min) and phase 2B (P2B; 41-60 min).
# Statistical analysis is performed using the Prism™ 4.01 software package (GraphPad, San Diego, Calif., USA). The difference in response levels between treatment groups and control vehicle group is analyzed using an ANOVA followed by Bonferroni's method for post-hoc pair-wise comparisons. A p value<0.05 is considered to be significant.
# PC12 cells = assay: Inhibition of NGF-induced neurite outgrowth; assay type: cell-based; conditions: Rattus norvegicus, PC-12, 96 h, Table 3, 4 days exposure to NGF
# Method: This assay is run as a further functional marker of NGF antagonism and takes advantage of the differentiation of PC12 cells (neurite outgrowth) induced by NGF. Cultures of PC12 cells are grown on Terasaki plates pre-coated with poly-D-lysine. Cells are exposed to NGF (1-50 (preferably 5) ng/ml) to induce neurite outgrowth as described elsewhere [LA Greene & AS Tischler, Establishment of a noradrenergic clonal line of rat adrenal pheochromocytoma cells which respond to nerve growth factor, Proc Natl Acad Sci USA. 1976 July; 73(7): 2424-2428]. In addition to NGF, cells are exposed to varying concentration of the compounds or vehicle. Following 4 days of exposure to NGF in the presence or absence of compound, neurite outgrowth is quantified. A neurite is scored if its caliber from origin to terminal is approximately the same and the length is equal to or greater than 1.5 the cell body diameter. The number of neurite bearing cells per total number of viable cells is calculated for each condition; the number of cells with neurites in the presence of NGF (without compound exposure) is considered to represent maximal (100%) outgrowth, to which the inhibitory effect of compounds of the invention on NGF-induced outgrowth is compared.
# [3] = system: NGF receptors on PC12 cells (TrkA+p75); assay: NGF binding (125I-NGF) using PC12 cells; set-up: species or system rat
# Method: NGF binding was evaluated using methods familiar to those who are skilled in the art. Briefly, cells expressing one or both NGF receptors (PC12: TrkA+p75; A875: p75 alone; HEK/CHO_trkA: TrkA alone) were harvested by replacing the medium with the cell dissociation buffer (Amersham) and incubating at 37° C. for 15 min. […] For most compounds, multiple dose-response curves were generated.
# The IC50 data shown in Tables A-J were acquired using the procedure described herein using PC12 cells.
# [4] = system: hyperalgesia from acute paw inflammation caused by intraplantar λ-carrageenan; assay: Carrageenan model (inflammatory pain); assay type: in vivo; conditions: rat, SC 10 min pre- and 3 h post-carrageenan, tested 4 h post; 1G 20 mg/kg, 50G 2×105 mg/kg
# Method: Acute inflammatory hyperalgesia is induced in rats by unilateral injection of 150 μl of a 3% solution of λ-carrageenan into the plantar surface of the left hind paw 3-5 hours prior to testing. Thermal hyperalgesia, mechanical allodynia, mechanical hyperalgesia, weight bearing asymmetry and paw inflammation are determined. Rats are pretreated with test compounds either administered intravenously (IV), by subcutaneous injection (SC) or by oral gavage (PO). Thermal nociceptive thresholds are determined according to the method described elsewhere (Hargreaves et al., 1988). Briefly, through the glass surface, a radiant heat source (8V, 50 W projector bulb) is focused onto the plantar surface of the hind paw. The rat's paw-withdrawal latency to this stimulus is recorded to the nearest 0.1 s. Each latency score is an average of three trials, which are separated by at least 5 min. In all rats, both the injured and uninjured hind paws are similarly tested, allowing direct comparisons between inflamed and non-inflamed paws. Mechanical hyperalgesia is determined by measuring the difference of withdrawal thresholds in response to increasing pressure in the inflamed vs contralateral paw using the Randall-Sellito Paw pressure meter (IITC Life Science) (Randall L O and Sellito J J., 1957). Briefly, rats are held in a contention jacket suspended by a stand and allowed to acclimate for 10 min. […]
# [5] = Table 2, read-out: NGF Binding Assay IC50
# [6] = Table J (Formula VIII), NGF binding, PC12 cells, read-out: IC50
"IC50 ([3]; Table 3, read-out: NGF Binding Assay IC50) [µM]",Structure (SMILES),IC50 [1] [µM],pain intensity as evaluated by the licking behavior [2],"ED50 ([2]; sc, given 30 min prior to formalin injection, read-out: ED50, number of licking and biting episodes in phase IIa of the formalin test) [µmol/kg]",IC50 (PC12 cells) [µM],"IC50 [3, 5] [µM]","IC50 [3, 6] [µM]",mechanical hyperalgesia (Randall-Sellito) [4],thermal hyperalgesia (Hargreaves' assay) [4]
< 10,"Cn1nnnc1-c1cc2c3c(cccc3c1)C(=O)N(CCCC(=O)O)C2=O [Compound 47G, 4-[5-(1-Methyl-1H-tetrazol-5-yl)-1,3-dioxo-1H-benzo[de]isoquinolin-2(3H)-yl]butanoic acid]",15 to 25,dose-dependent reduction of the pain intensity,~100,0.1 to 5,< 10,< 10,,
,"O=C(O)CCCN1C(=O)c2cccc3cc(-n4cnnn4)cc(c23)C1=O [Compound 50G, 4-[1,3-Dioxo-5-(1H-tetrazol-1-yl)-1H-benzo[de]isoquinolin-2(3H)-yl]butanoic acid]",5 to 15,dose-dependent reduction of the pain intensity,,,< 10,< 10,marginally improving the mechanical hyperalgesia,significantly reversed the thermal hyperalgesia

# Reference: patent publication US20090082368A1, “METHODS OF MODULATING NEUROTROPHIN-MEDIATED ACTIVITY” (PainCeptor Pharma Corporation, priority 2007, published 2009)
